Assay results taken from ChEMBL document CHEMBL5625222, “Design, synthesis, and biological evaluation of 1,6-naphthyridine-2-one derivatives as novel FGFR4 inhibitors for the treatment of colorectal cancer” (Eur J Med Chem, 2023).
Calls of active or inactive are those of the source. No cut-off for these calls is given here.

Tests used:
[1] = Antiproliferative activity against human Intestinal epithelial cell assessed as inhibition of cell growth incubated for 48 hrs by MTT assay; format: toxicity, cell-based; details: human intestinal epithelial cells
HCT-116 [2] = experiment: Antiproliferative activity against human HCT-116 cells assessed as inhibition of colony formation incubated for 2 weeks by crystal violet staining method; format: functional, cell-based
RKO [3] = experiment: Antiproliferative activity against human RKO cells assessed as inhibition of colony formation incubated for 2 weeks by crystal violet staining method; format: functional, cell-based
HCT-116 [4] = experiment: Antiproliferative activity against human HCT-116 cells assessed as inhibition of cell growth incubated for 48 hrs by EdU staining method; format: functional, cell-based
HCT-116 [5] = experiment: Induction of cell cycle arrest in human HCT-116 cells assessed as accumulation of cells at G2/M phase incubated for 48 hrs by propidium iodide staining based flow cytometry; format: functional
SW480 [6] = experiment: Induction of cell cycle arrest in human SW480 cells assessed as accumulation of cells at G2/M phase incubated for 48 hrs by propidium iodide staining based flow cytometry; format: functional
HCT-116 [7] = experiment: Induction of apoptosis in human HCT-116 cells at 3 to 12 uM incubated for 48 hrs by Annexin V-FITC/PI staining based flow cytometric analysis relative to control; format: functional; details: dose 3-12 µM
SW480 [8] = experiment: Induction of apoptosis in human SW480 cells assessed as downregulation of ratio of Bcl-2/Bax expression at 3 to 12 uM incubated for 48 hrs by Western blotting analysis; format: functional, cell-based; details: dose 3-12 µM
RKO [9] = experiment: Induction of apoptosis in human RKO cells assessed as downregulation of ratio of Bcl-2/Bax expression at 3 to 12 uM incubated for 48 hrs by Western blotting analysis; format: functional, cell-based; details: dose 3-12 µM
HCT-116 [10] = experiment: Anti-migration activity in human HCT-116 cells assessed as change in FAK distribution at 3 to 12 uM by immunofluorescence assay; format: functional, cell-based; details: dose 3-12 µM
HCT-116 [11] = experiment: Anti-migration activity in human HCT-116 cells assessed as downregulation of FAK phosphorylation by Western blotting analysis; format: functional, cell-based
SW480 [12] = experiment: Anti-migration activity in human SW480 cells assessed as loss of actin cytoskeletal fibers at 3 to 12 uM by immunofluorescence assay; format: functional, cell-based; details: dose 3-12 µM
SW480 [13] = experiment: Anti-migration activity in human SW480 cells assessed as change in FAK distribution at 3 to 12 uM by immunofluorescence assay; format: functional, cell-based; details: dose 3-12 µM
SW480 [14] = experiment: Anti-migration activity in human SW480 cells assessed as upregulation of E-cad expression by Western blotting analysis; format: functional, cell-based
SW480 [15] = experiment: Anti-migration activity in human SW480 cells assessed as change in N-cad expression at 3 to 12 uM by Western blotting analysis; format: functional, cell-based; details: dose 3-12 µM
RKO [16] = experiment: Anti-migration activity in human RKO cells assessed as upregulation of E-cad expression by Western blotting analysis; format: functional, cell-based
RKO [17] = experiment: Anti-migration activity in human RKO cells assessed as downregulation of FAK phosphorylation by Western blotting analysis; format: functional, cell-based
RKO [18] = experiment: Anti-migration activity in human RKO cells assessed as change in FAK expression at 3 to 12 uM by Western blotting analysis; format: functional, cell-based; details: dose 3-12 µM
[19] = Toxicity in ICR mouse assessed as change in body weight at 20 mg/kg,po administrated for 1 week; format: organism-based; details: in vivo, 168 h, time 1 weeks
[20] = Toxicity in ICR mouse assessed as change in liver weight at 60 mg/kg,po administrated for 1 week; format: organism-based; details: in vivo, 168 h, time 1 weeks
[21] = Toxicity in ICR mouse assessed as change in spleen weight at 60 mg/kg,po administrated for 1 week; format: organism-based; details: in vivo, 168 h, time 1 weeks
[22] = Toxicity in ICR mouse assessed as change in lung weight at 20 mg/kg,po administrated for 1 week; format: organism-based; details: in vivo, 168 h, time 1 weeks
[23] = Toxicity in ICR mouse assessed as change in lung weight at 60 mg/kg,po administrated for 1 week; format: organism-based; details: in vivo, 168 h, time 1 weeks
[24] = Hepatotoxicity in ICR mouse assessed as change in serum creatinine level at 20 mg/kg,po administrated for 1 week; format: toxicity, organism-based; details: in vivo, 168 h, time 1 weeks
[25] = Hepatotoxicity in ICR mouse assessed as change in serum AST level at 20 mg/kg,po administrated for 1 week; format: toxicity, organism-based; details: in vivo, 168 h, time 1 weeks
[26] = Hepatotoxicity in ICR mouse assessed as change in serum ALT level at 20 mg/kg,po administrated for 1 week; format: toxicity, organism-based; details: in vivo, 168 h, time 1 weeks
[27] = Toxicity in ICR mouse assessed as histopathological change in liver at 60 mg/kg,po administrated for 1 week by hematoxylin and eosin staining analysis; format: organism-based; details: in vivo, 168 h, time 1 weeks
[28] = Toxicity in ICR mouse assessed as histopathological change in kidney at 20 mg/kg,po administrated for 1 week by hematoxylin and eosin staining analysis; format: organism-based; details: in vivo, 168 h, time 1 weeks
[29] = Toxicity in BALB/c mouse xenografted with human HCT-116 cells assessed as change in body weight at 10 mg/kg,ip administrated for 2 weeks; format: organism-based; details: in vivo, 336 h
[30] = Toxicity in BALB/c mouse xenografted with human HCT-116 cells assessed as change in body weight at 20 mg/kg,ip administrated for 2 weeks; format: organism-based; details: in vivo, 336 h
[31] = Toxicity in BALB/c mouse xenografted with human HCT-116 cells assessed as change in heart weight at 10 mg/kg,ip administrated for 2 weeks; format: organism-based; details: in vivo, 336 h
[32] = Toxicity in BALB/c mouse xenografted with human HCT-116 cells assessed as change in heart weight at 20 mg/kg,ip administrated for 2 weeks; format: organism-based; details: in vivo, 336 h
[33] = Toxicity in BALB/c mouse xenografted with human HCT-116 cells assessed as change in lung weight at 10 mg/kg,ip administrated for 2 weeks; format: organism-based; details: in vivo, 336 h
[34] = Toxicity in BALB/c mouse xenografted with human HCT-116 cells assessed as change in kidney weight at 20 mg/kg,ip administrated for 2 weeks; format: organism-based; details: in vivo, 336 h
[35] = Toxicity in BALB/c mouse xenografted with human HCT-116 cells assessed as change in serum creatinine level at 20 mg/kg,ip administrated for 2 weeks; format: organism-based; details: in vivo, 336 h
[36] = Toxicity in BALB/c mouse xenografted with human HCT-116 cells assessed as change in serum ALT level at 10 mg/kg,ip administrated for 2 weeks; format: organism-based; details: in vivo, 336 h
[37] = Toxicity in BALB/c mouse xenografted with human HCT-116 cells assessed as change in serum ALT level at 20 mg/kg,ip administrated for 2 weeks; format: organism-based; details: in vivo, 336 h
HCT-116 [38] = experiment: Antitumor activity against human HCT-116 cells xenografted in BALB/c mouse assessed as upregulation of E-cad expression in tumor at 10 mg/kg,ip administrated for 2 weeks by Western blotting analysis; format: functional, organism-based
HCT-116 [39] = experiment: Antitumor activity against human HCT-116 cells xenografted in BALB/c mouse assessed as upregulation of E-cad expression in tumor at 20 mg/kg,ip administrated for 2 weeks by Western blotting analysis; format: functional, organism-based
HCT-116 [40] = experiment: Antitumor activity against human HCT-116 cells xenografted in BALB/c mouse assessed as decrease in Ki67 expression in tumor tissue at ip administrated for 2 weeks by immunohistochemical analysis; format: functional, organism-based
HCT-116 [41] = experiment: Antitumor activity against human HCT-116 cells xenografted in BALB/c mouse assessed as decrease in FAK expression in tumor tissue at ip administrated for 2 weeks by immunohistochemical analysis; format: functional, organism-based
HCT-116 [42] = experiment: cells; details: Homo sapiens, HCT-116, 48 h
Description: Antiproliferative activity against human HCT-116 cells assessed as inhibition of cell growth incubated for 48 hrs by MTT assay

SW480 [43] = experiment: cells; details: Homo sapiens, SW480, 48 h
Description: Antiproliferative activity against human SW480 cells assessed as inhibition of cell growth incubated for 48 hrs by MTT assay

In the case of `C=CC(=O)NCCCn1c(=O)c(-c2c(Cl)c(OC)cc(OC)c2Cl)cc2cnc(Nc3c(C)cccc3NC(=O)C=C)cc21`, the IC50 at 48 h [1] is reported as 23.8 µM, the Activity (HCT-116 [2]) is reported as “Dose-Dependent Effect” and the Activity (RKO [3]) is reported as “Dose-Dependent Effect”. The Activity (HCT-116 [4]) was “Dose-Dependent Effect”, the Activity (HCT-116 [5]) was “Dose-Dependent Effect” and the Activity (SW480 [6]) was “Dose-Dependent Effect”. The Activity (HCT-116 [7]) was 0.64%, the Activity (SW480 [8]) was “Active” and the Activity (RKO [9]) was “Active”. For the same molecule, the Activity (HCT-116 [10]) was “Active”, the Activity (HCT-116 [11]) was “Dose-Dependent Effect” and the Activity (SW480 [12]) was “Active”. For the same molecule, the Activity (SW480 [13]) was “Active”, the Activity (SW480 [14]) was “Dose-Dependent Effect” and the Activity (SW480 [15]) was “inactive”. The Activity (RKO [16]) was “Dose-Dependent Effect”, the Activity (RKO [17]) was “Dose-Dependent Effect” and the Activity (RKO [18]) was “inactive”. The Activity [19] was “Non-Toxic”, the Activity [20] was “Non-Toxic” and the Activity [21] was “Non-Toxic”. For the same molecule, the Activity [22] was “Non-Toxic”, the Activity [23] was “Non-Toxic” and the Activity [24] was “Non-Toxic”. For the same molecule, the Activity [25] was “Non-Toxic”, the Activity [26] was “Non-Toxic” and the Activity [27] was “Non-Toxic”. For the same molecule, the Activity [28] was “Non-Toxic”, the Activity [29] was “Non-Toxic” and the Activity [30] was “Non-Toxic”. The Activity [31] was “Non-Toxic”, the Activity [32] was “Non-Toxic” and the Activity [33] was “Non-Toxic”. For the same molecule, the Activity [34] was “Non-Toxic”, the Activity [35] was “Non-Toxic” and the Activity [36] was “Non-Toxic”. The Activity [37] was “Non-Toxic”, the Activity (HCT-116 [38]) was “Active” and the Activity (HCT-116 [39]) was “Active”. The Activity (HCT-116 [40]) was “Dose-Dependent Effect”, the Activity (HCT-116 [41]) was “Dose-Dependent Effect” and the IC50 (HCT-116 [42]) was 4.24 µM. For the same molecule, the IC50 (SW480 [43]) was 6.99 µM.
